Data: publication PMC3602277 (Bioorganic & medicinal chemistry, 2013)
Each block holds one compound with its values, some of them ahead of it.

Legend:
[1] = tested on: A431 cancer cells
[2] = tested on: EGFR; settings: read-out: EGFR IC50; cited from earlier work
[3] = biological target: VEGFR-2 (Homo sapiens, UniProt P35968); assay: Phosphotyrosine ELISA cytoblot, VEGFR-2 kinase inhibition in whole cells; format: cell-based; settings: for fold less active than standard 20 in VEGFR-2 inhibition assay: ratio of IC50 vs semaxanib 20
Sequence of VEGFR-2 (P35968 20-1356): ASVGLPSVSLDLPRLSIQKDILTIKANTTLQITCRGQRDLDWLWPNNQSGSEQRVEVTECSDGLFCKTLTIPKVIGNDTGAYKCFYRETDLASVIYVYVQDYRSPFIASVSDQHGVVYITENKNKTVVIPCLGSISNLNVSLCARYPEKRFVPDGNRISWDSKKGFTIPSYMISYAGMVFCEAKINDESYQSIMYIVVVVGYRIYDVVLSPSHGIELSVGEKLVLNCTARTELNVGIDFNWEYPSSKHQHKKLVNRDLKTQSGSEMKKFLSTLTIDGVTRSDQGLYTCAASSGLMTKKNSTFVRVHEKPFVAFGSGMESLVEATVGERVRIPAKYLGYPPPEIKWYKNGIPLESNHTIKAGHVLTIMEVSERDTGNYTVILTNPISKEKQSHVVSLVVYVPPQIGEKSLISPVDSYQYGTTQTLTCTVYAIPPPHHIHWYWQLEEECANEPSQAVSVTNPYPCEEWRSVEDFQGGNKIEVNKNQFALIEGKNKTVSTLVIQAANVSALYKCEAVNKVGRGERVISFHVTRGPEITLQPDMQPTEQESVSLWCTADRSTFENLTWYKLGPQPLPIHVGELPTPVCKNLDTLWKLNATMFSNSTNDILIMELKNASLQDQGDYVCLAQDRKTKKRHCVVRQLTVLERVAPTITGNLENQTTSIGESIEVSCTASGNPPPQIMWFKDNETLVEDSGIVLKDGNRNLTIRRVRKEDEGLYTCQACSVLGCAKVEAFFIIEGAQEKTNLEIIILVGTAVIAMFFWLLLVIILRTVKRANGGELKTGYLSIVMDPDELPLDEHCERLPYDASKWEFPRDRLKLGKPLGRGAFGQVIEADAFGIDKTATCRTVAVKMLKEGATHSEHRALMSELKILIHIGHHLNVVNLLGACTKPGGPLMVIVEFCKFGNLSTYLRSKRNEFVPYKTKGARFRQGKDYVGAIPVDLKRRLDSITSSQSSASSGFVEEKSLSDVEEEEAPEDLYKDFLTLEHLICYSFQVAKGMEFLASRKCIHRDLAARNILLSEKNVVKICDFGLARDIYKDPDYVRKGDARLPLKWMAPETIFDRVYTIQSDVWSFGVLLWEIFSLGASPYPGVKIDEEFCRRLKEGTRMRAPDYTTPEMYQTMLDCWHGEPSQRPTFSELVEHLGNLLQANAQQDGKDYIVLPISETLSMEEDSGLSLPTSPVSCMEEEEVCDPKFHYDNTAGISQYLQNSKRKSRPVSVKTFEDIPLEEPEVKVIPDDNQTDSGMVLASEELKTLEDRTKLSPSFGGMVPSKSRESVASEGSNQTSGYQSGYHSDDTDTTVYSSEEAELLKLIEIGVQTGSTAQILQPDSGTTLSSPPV

[4] = tested on: A431 cancer cells; assay: A431 cytotoxicity, CYQUANT cell proliferation assay; settings: ratio of IC50 vs cisplatin 23
[5] = biological target: PDGFR-β (Homo sapiens, UniProt P09619); assay: Phosphotyrosine ELISA cytoblot, PDGFR-β kinase inhibition in whole cells; format: cell-based
Sequence of PDGFR-β (P09619 33-1106): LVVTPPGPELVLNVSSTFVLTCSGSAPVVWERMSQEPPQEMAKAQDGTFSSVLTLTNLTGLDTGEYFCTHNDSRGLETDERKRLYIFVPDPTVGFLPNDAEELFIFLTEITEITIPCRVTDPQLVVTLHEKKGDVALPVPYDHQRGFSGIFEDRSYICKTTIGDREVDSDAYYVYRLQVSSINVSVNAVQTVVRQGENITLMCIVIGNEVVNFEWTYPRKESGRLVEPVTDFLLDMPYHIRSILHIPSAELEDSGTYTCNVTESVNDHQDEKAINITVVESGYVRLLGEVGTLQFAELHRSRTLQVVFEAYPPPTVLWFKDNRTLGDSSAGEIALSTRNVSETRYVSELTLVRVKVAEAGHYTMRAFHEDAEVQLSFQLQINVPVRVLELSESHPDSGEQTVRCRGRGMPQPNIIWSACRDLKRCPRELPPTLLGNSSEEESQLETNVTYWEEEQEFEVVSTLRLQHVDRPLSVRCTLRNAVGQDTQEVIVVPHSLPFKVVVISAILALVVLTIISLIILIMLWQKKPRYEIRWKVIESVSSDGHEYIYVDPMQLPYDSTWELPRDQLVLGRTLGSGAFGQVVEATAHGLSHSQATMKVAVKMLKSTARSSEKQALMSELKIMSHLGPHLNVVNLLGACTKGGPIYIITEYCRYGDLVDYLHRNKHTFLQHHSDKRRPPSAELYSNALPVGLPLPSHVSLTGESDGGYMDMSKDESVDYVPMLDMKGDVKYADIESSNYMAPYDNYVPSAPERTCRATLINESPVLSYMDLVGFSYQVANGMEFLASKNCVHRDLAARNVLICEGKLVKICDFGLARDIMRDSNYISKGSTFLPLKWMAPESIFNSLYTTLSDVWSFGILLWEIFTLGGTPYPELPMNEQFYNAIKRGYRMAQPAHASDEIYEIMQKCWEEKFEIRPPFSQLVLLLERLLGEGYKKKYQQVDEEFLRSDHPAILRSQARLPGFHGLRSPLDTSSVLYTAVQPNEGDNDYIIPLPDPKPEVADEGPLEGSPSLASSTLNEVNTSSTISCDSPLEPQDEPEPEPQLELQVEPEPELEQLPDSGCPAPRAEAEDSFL

[6] = biological target: EGFR (Homo sapiens, UniProt P00533); assay: Phosphotyrosine ELISA cytoblot, EGFR kinase inhibition in whole cells; format: cell-based
Sequence of EGFR (Homo sapiens, UniProt P00533) (P00533 25-1210): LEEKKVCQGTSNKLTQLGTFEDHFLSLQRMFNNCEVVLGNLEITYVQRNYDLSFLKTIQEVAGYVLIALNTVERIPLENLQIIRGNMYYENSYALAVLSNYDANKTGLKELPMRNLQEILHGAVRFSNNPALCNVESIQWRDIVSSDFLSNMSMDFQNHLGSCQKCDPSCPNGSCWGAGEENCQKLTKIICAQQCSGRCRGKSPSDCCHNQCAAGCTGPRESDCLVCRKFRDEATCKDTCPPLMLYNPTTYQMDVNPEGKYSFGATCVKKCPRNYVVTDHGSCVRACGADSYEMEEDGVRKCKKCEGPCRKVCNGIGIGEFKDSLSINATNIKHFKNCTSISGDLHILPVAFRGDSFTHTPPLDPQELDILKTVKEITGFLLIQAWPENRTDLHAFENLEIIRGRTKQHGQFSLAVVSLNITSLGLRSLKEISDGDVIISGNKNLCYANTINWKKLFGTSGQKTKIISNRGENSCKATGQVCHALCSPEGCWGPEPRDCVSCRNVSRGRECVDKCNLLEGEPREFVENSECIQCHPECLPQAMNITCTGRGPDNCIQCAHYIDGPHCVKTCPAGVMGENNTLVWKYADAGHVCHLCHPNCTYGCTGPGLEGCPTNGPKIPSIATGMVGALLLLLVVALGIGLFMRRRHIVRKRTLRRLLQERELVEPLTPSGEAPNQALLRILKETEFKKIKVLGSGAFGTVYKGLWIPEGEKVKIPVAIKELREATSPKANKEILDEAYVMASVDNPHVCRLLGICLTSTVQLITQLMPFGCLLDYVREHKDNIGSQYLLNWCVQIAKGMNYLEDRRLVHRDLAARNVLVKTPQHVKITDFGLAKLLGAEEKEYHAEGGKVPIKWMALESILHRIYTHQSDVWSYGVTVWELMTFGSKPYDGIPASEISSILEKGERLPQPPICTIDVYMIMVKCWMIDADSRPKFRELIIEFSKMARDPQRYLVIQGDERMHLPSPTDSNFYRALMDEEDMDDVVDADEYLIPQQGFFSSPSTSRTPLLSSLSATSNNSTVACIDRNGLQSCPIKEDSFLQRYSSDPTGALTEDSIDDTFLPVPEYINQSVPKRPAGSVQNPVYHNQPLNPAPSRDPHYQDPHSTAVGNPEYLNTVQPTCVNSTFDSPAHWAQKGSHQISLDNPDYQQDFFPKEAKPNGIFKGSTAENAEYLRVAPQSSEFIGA

Structure (SMILES): Clc1cccc(Nc2ncnc3[nH]c4ccccc4c23)c1 [Compound 1]
IC50 [2]: 0.006 µM

Structure (SMILES): Nc1nc(Nc2ccc(Cl)cc2)c2c(n1)[nH]c1cccc(Cl)c12 [Compound 5, 5-chloro-N^4-(4-chlorophenyl)-9H-pyrimido[4,5-b]indole-2,4-diamine]
fold more potent than erlotinib in VEGFR-2 inhibition assay ([3]; ratio of IC50 vs erlotinib): 9.4 fold
fold more potent than sunitinib in VEGFR-2 inhibition assay ([3]; ratio of IC50 vs sunitinib): 1.4 fold
potency relative to standard 20 in VEGFR-2 inhibition assay ([3]; vs semaxanib 20): equipotent
fold less potent than standard 23 in A431 cytotoxicity assay [4]: 4 fold

Structure (SMILES): COc1cccc(Nc2nc(N)nc3[nH]c4cccc(Cl)c4c23)c1 [Compound 8, 5-chloro-N^4-(3-methoxyphenyl)-9H-pyrimido[4,5-b]indole-2,4-diamine]
fold less active than corresponding 2-amino pivaloyl compound, VEGFR-2 ([3]; 7 vs 13, 8 vs 14): ~1.7 fold
fold less active than standard 20 in VEGFR-2 inhibition assay [3]: 7 fold
fold less active than standard 22 in PDGFR-β inhibition assay ([5]; ratio of IC50 vs DMBI 22): about 13.5 fold
fold less active than erlotinib in PDGFR-β inhibition assay ([5]; ratio of IC50 vs erlotinib): 4 fold

Structure (SMILES): CC(C)c1ccc(Nc2nc(NC(=O)C(C)(C)C)nc3[nH]c4cccc(Cl)c4c23)cc1 [Compound 10, N-{5-chloro-4-[(4-isopropylphenyl)amino]-9H-pyrimido[4,5-b]indol-2-yl}-2,2-dimethylpropanamide]
fold less active than standard 20 in VEGFR-2 inhibition assay [3]: ~4 fold

Structure (SMILES): CC(C)(C)C(=O)Nc1nc(Nc2cccc(F)c2)c2c(n1)[nH]c1cccc(Cl)c12 [Compound 13, N-{5-chloro-4-[(3-fluorophenyl)amino]-9H-pyrimido[4,5-b]indol-2-yl}-2,2-dimethylpropanamide]
fold less active than standard 20 in VEGFR-2 inhibition assay [3]: about 2.5 fold
fold less potent than standard 21 in EGFR inhibition assay ([6]; ratio of IC50 vs PD153035 21): 150 fold
fold less active than erlotinib in EGFR inhibition assay ([6]; ratio of IC50 vs erlotinib): 25 fold

Further lines, with some results ahead:

IC50 [1]: 10.6 ± 2.9 µM
Structure (SMILES): [NH2][Pt]([NH2])([Cl])[Cl] [Cisplatin (23), cisplatin]

fold less active than standard 20 in VEGFR-2 inhibition assay [3]: 2 fold
Structure (SMILES): CC(C)(C)C(=O)Nc1nc(Nc2ccc(Cl)cc2)c2c(n1)[nH]c1cccc(Cl)c12 [Compound 11, N-{5-chloro-4-[(4-chlorophenyl)amino]-9H-pyrimido[4,5-b]indol-2-yl}-2,2-dimethylpropanamide]
fold less potent than standard 23 in A431 cytotoxicity assay [4]: 5 fold

fold less active than standard 20 in VEGFR-2 inhibition assay [3]: ~3.5 fold
Structure (SMILES): COc1cccc(Nc2nc(NC(=O)C(C)(C)C)nc3[nH]c4cccc(Cl)c4c23)c1 [Compound 14, N-{5-chloro-4-[(3-methoxyphenyl)amino]-9H-pyrimido[4,5-b]indol-2-yl}-2,2-dimethylpropanamide]
